Source: BindingDB's records for doi:10.1007/s10822-022-00478-x (Roche Innovation Center Basel, F. Hoffmann-La Roche Ltd., 2022)

Target: cAMP and cAMP-inhibited cGMP 3',5'-cyclic phosphodiesterase 10A (Homo sapiens, UniProt Q9Y233)
Experiment: PDE10A assay
Procedure: Compounds were diluted in 20 mM HEPES/NaOH (pH 7.5), 10 mM MgCl2 and 0.05 mg/ml bovine serum albumin. A fixed amount of 2 ng/well human PDE10A enzyme was added and incubated at room temperature for 15 min under agitation. The reaction was started by the addition of the substrate cocktail [3H]cGMP (Perkin Elmer NET337001MC, S.A. 13.5 Ci/mmol) / cGMP at a final concentration of 50 nM and incubated for an additional 15 min. The reaction was stopped by the addition of 0.5 mg/well of Y-Si SPA beads. The plates were shaken for 1 h, followed by a brief centrifugation (170 g for 1 min). The radioactivity bound to the beads was estimated using a TopCount (Perkin-Elmer). For the determination of IC50 values, a four parameters logistics equation was used. pIC50 is defined as − log10(IC50).

SMILES: CCOC(=O)c1cnn(C)c1C(=O)Nc1ccn2nc(-c3cccc(F)c3)nc2c1 [Roche-Dataset for PDE10A, Compound 175]
- IC50: 0.046 µM

SMILES: O=C1c2ccccc2C(=O)N1CCc1csc(-c2ccccc2)n1 [Roche-Dataset for PDE10A, Compound 177]
- IC50: 2.52 µM

SMILES: CCc1nc(C)c(C(=O)Nc2cc3nc(-c4ccccc4)[nH]c3cc2C(=O)NCC2(C)COC2)o1 [Roche-Dataset for PDE10A, Compound 178]
- IC50: 0.00353 µM

SMILES: Cn1cc(-c2ccccc2)nc1/C=C/c1ccc2ccccc2n1 [Roche-Dataset for PDE10A, Compound 180]
- IC50: 0.271 µM

SMILES: O=C(NCCCc1noc(-c2ccccc2)n1)c1nc(C2CC2)cnc1Nc1cncnc1 [Roche-Dataset for PDE10A, Compound 181]
- IC50: 0.495 µM

SMILES: Cn1cc(-c2ccccc2)nc1CCNC(=O)c1cccn2cnnc12 [Roche-Dataset for PDE10A, Compound 182]
- IC50: 0.392 µM

SMILES: Cn1cnc(C(=O)N2CCC2)c1C(=O)Nc1ccn2nc(-c3ccccc3)nc2c1 [Roche-Dataset for PDE10A, Compound 183]
- IC50: 0.021 µM

SMILES: CNC(=O)c1cn2cc(-c3ccccc3)nc2cc1NC(=O)c1nc(C2CC2)ccc1Nc1cncnc1 [Roche-Dataset for PDE10A, Compound 184]
- IC50: 0.00022 µM

SMILES: COc1cc(-c2nc3cc(NC(=O)c4c(C(=O)N5CCC5)cnn4C)ccn3n2)ccn1 [Roche-Dataset for PDE10A, Compound 185]
- IC50: 0.00473 µM

SMILES: Cc1c(Cl)cc(C(F)F)c2nc(CCc3nc(N4CCCC4)nn3C)nn12 [Roche-Dataset for PDE10A, Compound 187]
- IC50: 0.00167 µM

SMILES: CN(CCF)C(=O)c1cnn(C)c1C(=O)N[C@@H]1CCn2cc(-c3ccccc3)nc2C1 [Roche-Dataset for PDE10A, Compound 190]
- IC50: 0.205 µM

SMILES: Cn1cc(-c2ccccc2)nc1COc1ncc(C2CC2)nc1C(=O)NCC1CC1 [Roche-Dataset for PDE10A, Compound 191]
- IC50: 0.221 µM

SMILES: CN(C(=O)c1cnn(C)c1C(=O)N[C@@H]1CCn2cc(-c3ccccc3OC(F)F)nc2C1)C1CC1 [Roche-Dataset for PDE10A, Compound 192]
- IC50: 0.00798 µM

SMILES: Cn1ncc(C(=O)N2C[C@@H]3C[C@H]2CO3)c1C(=O)Nc1ccn2nc(N3CCOCC3)nc2c1 [Roche-Dataset for PDE10A, Compound 193]
- IC50: 0.128 µM

SMILES: CN(C)C(=O)c1cnn(C)c1C(=O)Nc1ccc2[nH]c(-c3ccccc3)nc2c1 [Roche-Dataset for PDE10A, Compound 195]
- IC50: 0.00036 µM

SMILES: COc1c(C)cnc(CCc2nc(-c3ccccc3)cn2C)c1C [Roche-Dataset for PDE10A, Compound 197]
- IC50: 0.68 µM

SMILES: COc1nc(OCc2nc(-c3ccccc3)cn2C)nc2ccc(Cl)cc12 [Roche-Dataset for PDE10A, Compound 198]
- IC50: 0.015 µM

SMILES: CNc1cc(C(=O)Nc2ccn3nc(-c4ccccc4)nc3c2)cc(Cl)n1 [Roche-Dataset for PDE10A, Compound 199]
- IC50: 0.086 µM

SMILES: CC(C)c1nnc2c(C(=O)NCCc3nc(-c4ccccc4)cn3C)cccn12 [Roche-Dataset for PDE10A, Compound 201]
- IC50: 0.025 µM

SMILES: Cc1oc(-c2ccccc2)nc1CCNC(=O)c1nc(C2CC2)cnc1Nc1cncnc1 [Roche-Dataset for PDE10A, Compound 202]
- IC50: 0.00308 µM

SMILES: CCN(CC)C(=O)c1cnn(C)c1C(=O)Nc1ccn2nc(N3CCOCC3)nc2c1 [Roche-Dataset for PDE10A, Compound 203]
- IC50: 0.022 µM

SMILES: Cn1ncc(C(=O)N2CCC2)c1C(=O)Nc1cc2nc(-c3ccccc3)nn2cc1F [Roche-Dataset for PDE10A, Compound 204]
- IC50: 0.00078 µM

SMILES: Cc1c(Cl)cc(OC(F)F)c2nc(CCc3nc(N4CCCC4)n(C)n3)nn12 [Roche-Dataset for PDE10A, Compound 206]
- IC50: 0.00054 µM

SMILES: CN(C(=O)c1cnn(C)c1C(=O)Nc1ccn2nc(N3CCOCC3)nc2c1)C1CC1 [Roche-Dataset for PDE10A, Compound 207]
- IC50: 0.0011 µM

SMILES: CC(C)c1ncc(Nc2ccon2)c(C(=O)N[C@@H]2CCN(c3ccc(Cl)cn3)C2)n1 [Roche-Dataset for PDE10A, Compound 212]
- IC50: 0.232 µM

SMILES: Cc1cnn2c(C)c(CCc3nc(N4CCCC4)nn3C)nc2c1C [Roche-Dataset for PDE10A, Compound 216]
- IC50: 0.02 µM

SMILES: Cn1ncc2c1C(=O)N(c1ccn3nc(-c4cccc(F)c4)nc3c1)C2=O [Roche-Dataset for PDE10A, Compound 217]
- IC50: 0.051 µM

SMILES: Cn1ncc(C(=O)N2CCC2)c1C(=O)Nc1ccn2nc(-c3ccnc(Cl)c3)nc2c1 [Roche-Dataset for PDE10A, Compound 218]
- IC50: 0.0069 µM

SMILES: Cc1cncc(-c2nc3cc(NC(=O)c4c(C(=O)N5CCC5)cnn4C)ccn3n2)c1 [Roche-Dataset for PDE10A, Compound 219]
- IC50: 0.011 µM

SMILES: CCOC(=O)c1cnn(C)c1C(=O)Nc1ccn2nc(-c3ccccc3OC)nc2c1 [Roche-Dataset for PDE10A, Compound 220]
- IC50: 0.012 µM

SMILES: CN(C)C(=O)c1cnn(C)c1C(=O)N[C@@H]1CCn2c(nc(-c3ccccc3)c2Cl)C1 [Roche-Dataset for PDE10A, Compound 221]
- IC50: 0.03 µM

SMILES: Cn1ncc(C(=O)N2CCOCC2)c1C(=O)Nc1cn(-c2ccc3ccccc3n2)cn1 [Roche-Dataset for PDE10A, Compound 222]
- IC50: 0.00176 µM

SMILES: Cc1c(Cl)cc(OC(C)C)c2nc(CCc3nc(N4CCCC4)nn3C)nn12 [Roche-Dataset for PDE10A, Compound 223]
- IC50: 0.00069 µM

SMILES: Cn1ncc(C(=O)N2CCC2)c1C(=O)N[C@@H]1CCn2c(nc(-c3ccccc3)c2Cl)C1 [Roche-Dataset for PDE10A, Compound 225]
- IC50: 0.00696 µM

SMILES: COc1cccc(-c2cn3c(n2)C[C@H](NC(=O)c2c(C(=O)N(C)C)cnn2C)CC3)c1 [Roche-Dataset for PDE10A, Compound 230]
- IC50: 0.263 µM

SMILES: Cc1cc(-c2nc3cc(NC(=O)c4c(C(=O)N5CCC5)cnn4C)ccn3n2)ccn1 [Roche-Dataset for PDE10A, Compound 234]
- IC50: 0.00191 µM

SMILES: Cn1ncc(C(=O)N2CCC2)c1C(=O)Nc1cc2nc(-c3ccccc3)nn2cn1 [Roche-Dataset for PDE10A, Compound 236]
- IC50: 0.00261 µM

SMILES: Cn1cc(-c2ccccc2)nc1CCc1cccc(-c2ccccn2)n1 [Roche-Dataset for PDE10A, Compound 237]
- IC50: 2.42 µM

SMILES: CNC(=O)c1cc2[nH]c(-c3ccccc3)nc2cc1NC(=O)c1oc(CO)nc1C [Roche-Dataset for PDE10A, Compound 238]
- IC50: 0.748 µM

SMILES: COCc1cnn(C)c1C(=O)Nc1ccn2nc(-c3ccccc3)nc2c1 [Roche-Dataset for PDE10A, Compound 239]
- IC50: 0.014 µM

SMILES: Cn1cc(-c2ccccc2)nc1COc1nc(N2CCOCC2)c2ccccc2n1 [Roche-Dataset for PDE10A, Compound 240]
- IC50: 0.011 µM

SMILES: Cc1cccc(-c2cn3c(n2)C[C@H](NC(=O)c2c(C(=O)N(C)C)cnn2C)CC3)c1 [Roche-Dataset for PDE10A, Compound 241]
- IC50: 0.034 µM

SMILES: CCN(C)C(=O)c1cnn(C)c1C(=O)N[C@@H]1CCn2cc(-c3ccccc3)nc2C1 [Roche-Dataset for PDE10A, Compound 242]
- IC50: 0.015 µM

SMILES: Nc1ccc(C2CC2)nc1C(=O)Nc1cc2nc(-c3ccccc3)[nH]c2cc1C(=O)NC1COC1 [Roche-Dataset for PDE10A, Compound 243]
- IC50: 0.011 µM

SMILES: COc1c(C)cnc(/C=C/c2nc(-c3ccccc3)cn2C)c1C [Roche-Dataset for PDE10A, Compound 245]
- IC50: 0.987 µM

SMILES: CN(C(=O)c1cnn(C)c1C(=O)N[C@@H]1CCn2cc(-c3ccccc3)nc2C1)C1COC1 [Roche-Dataset for PDE10A, Compound 248]
- IC50: 0.044 µM

SMILES: COC[C@H]1CCCN1c1nc(CCc2nc3c(C)ncc(C)n3n2)n(C)n1 [Roche-Dataset for PDE10A, Compound 249]
- IC50: 0.012 µM

SMILES: Cn1nnc(C(=O)N2CCC2)c1C(=O)Nc1ccn2nc(-c3ccccc3)nc2c1 [Roche-Dataset for PDE10A, Compound 250]
- IC50: 0.182 µM

SMILES: CCOc1ccccc1-c1cn2c(n1)C[C@H](NC(=O)c1c(C(=O)N3CCC3)cnn1C)CC2 [Roche-Dataset for PDE10A, Compound 251]
- IC50: 0.0022 µM

SMILES: CC(C)NC(=O)c1nc(C2CC2)cnc1OCc1nc(-c2ccccc2)cn1C [Roche-Dataset for PDE10A, Compound 252]
- IC50: 1.06 µM

SMILES: Cn1ncc(C(=O)N2CCC2)c1C(=O)N[C@@H]1CCn2cc(-c3ccccc3OC(F)(F)F)nc2C1 [Roche-Dataset for PDE10A, Compound 253]
- IC50: 0.044 µM

SMILES: Cc1nc2ccccc2nc1CCc1ncc(-c2ccccc2)[nH]1 [Roche-Dataset for PDE10A, Compound 254]
- IC50: 0.00925 µM

SMILES: CCn1nc(C)cc1C(=O)Nc1cc2nc(-c3ccccc3)[nH]c2cc1C(=O)NCCOC [Roche-Dataset for PDE10A, Compound 256]
- IC50: 0.014 µM

SMILES: Cn1ncc(C(=O)N2CCC2)c1C(=O)N[C@@H]1CCn2cc(-c3ccccc3OC(F)F)nc2C1 [Roche-Dataset for PDE10A, Compound 257]
- IC50: 0.00604 µM

SMILES: CCN(CC)C(=O)c1c(C)noc1C(=O)Nc1ccn2nc(-c3ccccc3)nc2c1 [Roche-Dataset for PDE10A, Compound 258]
- IC50: 3.12 µM

SMILES: Cc1[nH]c(-c2cccnc2)nc1CCN1C(=O)c2ccccc2C1=O [Roche-Dataset for PDE10A, Compound 260]
- IC50: 1.54 µM

SMILES: Cn1ncc(C(=O)N2CCC2)c1C(=O)N[C@@H]1CCn2cc(-c3ccc(F)cc3)nc2C1 [Roche-Dataset for PDE10A, Compound 261]
- IC50: 0.00454 µM

SMILES: CCOC(=O)c1cnn(C)c1C(=O)Nc1ccn2nc(-c3cccnc3F)nc2c1 [Roche-Dataset for PDE10A, Compound 264]
- IC50: 0.183 µM

SMILES: CCOc1cc(Cl)c(C)n2nc(CCc3nc(N4CCCC4)nn3C)nc12 [Roche-Dataset for PDE10A, Compound 266]
- IC50: 0.0006 µM
